Reference: patent US8609610B2, “Inhibitors of the trypsin-like site of the proteasome and methods of use thereof” (Trustees of Dartmouth College, priority 2011, dated 2013)
Where two headings read alike, the source gives them in different places.

What was measured:
[1] = biological target: T1, trypsin-like sites (β2) of proteasome in MM cells (Homo sapiens, UniProt Q99436); experiment: PROTEASOMEGLO assay of proteasome inhibition in MM cells; format: cell-based; details: for IC50: 6 hours, >>30 no inhibition at 30 μM, >30 inhibition 10-50% at 30 μM, read-out: IC50 for sites: Tr-L
T1 construct: endogenous in cells; host or cells: NCI-H929, RPMI-8226 and other MM cell lines
T1 sequence (Q99436 44-277): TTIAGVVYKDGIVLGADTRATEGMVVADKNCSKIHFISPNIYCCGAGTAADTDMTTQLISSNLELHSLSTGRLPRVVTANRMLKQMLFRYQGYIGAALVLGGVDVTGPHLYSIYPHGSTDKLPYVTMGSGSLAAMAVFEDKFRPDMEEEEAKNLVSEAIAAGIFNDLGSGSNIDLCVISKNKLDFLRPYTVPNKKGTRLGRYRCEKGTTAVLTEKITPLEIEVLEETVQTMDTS

[2] = tested on: T2, chymotrypsin-like sites (β5) of proteasome in MM cells; experiment: as above; format: cell-based; details: 6 hours, >>30 no inhibition at 30 μM, >30 inhibition 10-50% at 30 μM, read-out: IC50 for sites: Chym-L
T2 construct: other: NCI-H929; bortezomib 100 nM 1 h; bortezomib 11 nM 1 h; bortezomib 3.7 nM 1 h; bortezomib 33 nM 1 h; other: NCI-H9

[3] = tested on: trypsin-like sites (β2) of proteasome in MM cells; experiment: as above; format: cell-based
β2 and β2i sites = experiment: MV-151 label-competition in extracts of RPMI-8226 MM cells; format: biochemical; details: extracts of RPMI-8226 cells, MV-151 probe
Text: Multiple myeloma cells express constitutive proteasomes and immunoproteasomes, and substrates used for the measurement of activity were cleaved by both. To determine whether there were any differences in inhibition of constitutive proteasomes or immunoproteasomes by NC-002, NC-012, and NC-022, the fluorescent activity-based probe MV-151 (Verdoes, et al. (2006) Chem. Biol. 13:1217-1226) was used in a label-competition experiment. Extracts of RPMI-8226 MM cells (which express more immunoproteasomes than NCI-H929 cells) were treated first with the NC inhibitors and then with the MV-151 probe. This was followed by fractionation on SDS-PAGE to separate proteasome subunits and imaging to reveal those subunits labeled by the probe (i.e., unmodified by the inhibitors).

Question: Cc1c(O)cccc1C(=O)N[C@H](C(=O)N[C@@H](CO)C(=O)N[C@@H](CCCNC(=N)N)C(=O)[C@@]1(C)CO1)C(C)C [NC-022, HMB-Val-Ser-Arg-ek] was tested. Which inhibition at 3 µM ([1]; 3 μM NC-022, within 4-6 hours after addition) did it give?
Answer: Its inhibition at 3 µM is 90%.

Question: And the “inhibition of trypsin-like activity by NC-022 treatment” value ([1]; NCI-H929 and KMS-12-BM, 5 hours after NC-022 addition)?
Answer: The value was “that trypsin-like activity was inhibited by >90% but inhibition of the chymotrypsin-like activity was not altered by NC-022 treatment”.

Question: What about the “inhibition of trypsin-like activity in live cells” value ([1]; NCI-H929 cells treated overnight) of the same compound?
Answer: The value was “sub-micromolar concentrations”.

Question: And the IC50 ([1]; NCI-H929 cells)?
Answer: Its IC50 is 0.9 µM.

Question: What about the IC50 ([1]; RPMI-8226 cells) of the same compound?
Answer: Its IC50 is 24 µM.

Question: And the IC50 ([2]; NCI-H929 cells)?
Answer: The IC50 was over 30 µM.

Question: What about the IC50 ([2]; RPMI-8226 cells) of the same compound?
Answer: Its IC50 is over 30 µM.

Question: And the “difference in IC50 for trypsin-like activity between NCI-H929 and RPMI-8226” value [3]?
Answer: The value was 25 fold.

Question: And the “time to steady-state proteasome inhibition” value ([3]; RPMI-8226 cells)?
Answer: Its value is over 6 h.

Question: What about the “inhibition of constitutive (β2) versus immunoproteasome (β2i) trypsin-like sites” value (β2 and β2i sites) of the same compound?
Answer: The value was “equipotent inhibitors of the trypsin-like sites of constitutive and immunoproteasomes”.
